# Reference: ChEMBL document CHEMBL3885861, “Open TG-GATES”
# Species: Rattus norvegicus
# Experiment: Open TG-GATES - Regimen: Single
# Type: toxicity, organism-based, Sprague-Dawley
# Set-up: regimen Single, gender Male, age 6 weeks
# Conditions: in vivo, po, 400 mg/kg, route gavage, dose level Low; for APTT / Bas / Eos / Fbg / Hb / Ht / Lym / MCH / MCHC / MCV / Mono / Neu / PT / Plat / RBC / Ret / WBC: tissue Blood; for KIDNEY_L / KIDNEY_R / KIDNEY_TOTAL: tissue Kidney; for LIVER: tissue Liver; for A/G / ALP / ALT / AST / BUN / CRE / Ca / Cl / DBIL / GLC / IP / K / LDH / Na / PL / RALB / TBIL / TC / TG / TP / gamma-GTP: tissue Plasma
compound,measurement,setting,value
CCO [ALCOHOL],TERMINAL_BW,3 h,202.6 g
same,APTT,3 h,16.4 s
same,Bas,3 h,0%
same,Eos,3 h,1%
same,Fbg,3 h,202.8 mg/dL
same,Hb,3 h,13.7 g/dL
same,Ht,3 h,40.7%
same,Lym,3 h,81.2%
same,MCH,3 h,21.8 pg
same,MCHC,3 h,33.6%
same,MCV,3 h,64.7 fL
same,Mono,3 h,5.6%
same,Neu,3 h,12.2%
same,PT,3 h,12 s
same,Plat,3 h,115.5 x10_4/uL
same,RBC,3 h,628.6 x10_4/ul
same,Ret,3 h,10%
same,WBC,3 h,77.8 x10_2/uL
same,KIDNEY_L,3 h,0.9 g
same,KIDNEY_R,3 h,0.9 g
same,KIDNEY_TOTAL,3 h,1.8 g
same,LIVER,3 h,9.6 g
same,A/G,3 h,2.5
same,ALP,3 h,1037.2 IU/L
same,ALT,3 h,36.2 IU/L
same,AST,3 h,69 IU/L
same,BUN,3 h,13.8 mg/dL
same,CRE,3 h,0.5 mg/dL
same,Ca,3 h,10.7 mg/dL
same,Cl,3 h,104.4 meq/L
same,DBIL,3 h,0.012 mg/dL
same,GLC,3 h,195.8 mg/dL
same,IP,3 h,9.3 mg/dL
same,K,3 h,4.4 meq/L
same,LDH,3 h,117.6 IU/L
same,Na,3 h,139.8 meq/L
same,PL,3 h,140.4 mg/dL
same,RALB,3 h,3.9 g/dL
same,TBIL,3 h,0.4 mg/dL
same,TC,3 h,76.4 mg/dL
same,TG,3 h,66 mg/dL
same,TP,3 h,5.4 g/dL
same,gamma-GTP,3 h,1.2 IU/L
same,TERMINAL_BW,6 h,202.6 g
same,APTT,6 h,17.9 s
same,Bas,6 h,0%
same,Eos,6 h,1%
same,Fbg,6 h,220.2 mg/dL
same,Hb,6 h,13.8 g/dL
same,Ht,6 h,41.1%
same,Lym,6 h,70.4%
same,MCH,6 h,21.7 pg
same,MCHC,6 h,33.6%
same,MCV,6 h,64.6 fL
same,Mono,6 h,6.6%
same,Neu,6 h,22.4%
same,PT,6 h,11.8 s
same,Plat,6 h,114.6 x10_4/uL
same,RBC,6 h,636.6 x10_4/ul
same,Ret,6 h,10.1%
same,WBC,6 h,98 x10_2/uL
same,KIDNEY_L,6 h,0.9 g
same,KIDNEY_R,6 h,0.9 g
same,KIDNEY_TOTAL,6 h,1.8 g
same,LIVER,6 h,9.6 g
same,A/G,6 h,2.3
same,ALP,6 h,802 IU/L
same,ALT,6 h,29.8 IU/L
same,AST,6 h,61.8 IU/L
same,BUN,6 h,11.2 mg/dL
same,CRE,6 h,0.5 mg/dL
same,Ca,6 h,10.5 mg/dL
same,Cl,6 h,105 meq/L
same,DBIL,6 h,0.068 mg/dL
same,GLC,6 h,197.2 mg/dL
same,IP,6 h,9.8 mg/dL
same,K,6 h,4.7 meq/L
same,LDH,6 h,90.2 IU/L
same,Na,6 h,139.6 meq/L
same,PL,6 h,135.4 mg/dL
same,RALB,6 h,3.8 g/dL
same,TBIL,6 h,0.4 mg/dL
same,TC,6 h,75 mg/dL
same,TG,6 h,53.2 mg/dL
same,TP,6 h,5.4 g/dL
same,gamma-GTP,6 h,1.8 IU/L
same,TERMINAL_BW,9 h,203.1 g
same,APTT,9 h,18.5 s
same,Bas,9 h,0%
same,Eos,9 h,1.4%
same,Fbg,9 h,205 mg/dL
same,Hb,9 h,13.4 g/dL
same,Ht,9 h,40.1%
same,Lym,9 h,70.4%
same,MCH,9 h,21.7 pg
same,MCHC,9 h,33.5%
same,MCV,9 h,64.7 fL
same,Mono,9 h,7.6%
same,Neu,9 h,20.4%
same,PT,9 h,12 s
same,Plat,9 h,110.8 x10_4/uL
same,RBC,9 h,619 x10_4/ul
same,Ret,9 h,10.4%
same,WBC,9 h,90.1 x10_2/uL
same,KIDNEY_L,9 h,0.9 g
same,KIDNEY_R,9 h,0.9 g
same,KIDNEY_TOTAL,9 h,1.8 g
same,LIVER,9 h,8.6 g
same,A/G,9 h,2.9
same,ALP,9 h,826.6 IU/L
same,ALT,9 h,30.2 IU/L
same,AST,9 h,63 IU/L
same,BUN,9 h,12.8 mg/dL
same,CRE,9 h,0.5 mg/dL
same,Ca,9 h,10.9 mg/dL
same,Cl,9 h,105.6 meq/L
same,DBIL,9 h,0.038 mg/dL
same,GLC,9 h,199.4 mg/dL
same,IP,9 h,9.9 mg/dL
same,K,9 h,4.5 meq/L
same,LDH,9 h,106.4 IU/L
same,Na,9 h,137 meq/L
same,PL,9 h,137.4 mg/dL
same,RALB,9 h,4.1 g/dL
same,TBIL,9 h,0.4 mg/dL
same,TC,9 h,79.4 mg/dL
same,TG,9 h,37.2 mg/dL
same,TP,9 h,5.5 g/dL
same,gamma-GTP,9 h,1.8 IU/L
same,TERMINAL_BW,24 h,214.8 g
same,APTT,24 h,16.9 s
same,Bas,24 h,0%
same,Eos,24 h,1.6%
same,Fbg,24 h,196.4 mg/dL
same,Hb,24 h,13.2 g/dL
same,Ht,24 h,39.2%
same,Lym,24 h,75%
same,MCH,24 h,21.3 pg
same,MCHC,24 h,33.7%
same,MCV,24 h,63.3 fL
same,Mono,24 h,7.2%
same,Neu,24 h,17%
same,PT,24 h,11.5 s
same,Plat,24 h,122.1 x10_4/uL
same,RBC,24 h,619 x10_4/ul
same,Ret,24 h,10.5%
same,WBC,24 h,85 x10_2/uL
same,KIDNEY_L,24 h,1 g
same,KIDNEY_R,24 h,1 g
same,KIDNEY_TOTAL,24 h,2 g
same,LIVER,24 h,9.9 g
same,A/G,24 h,2.6
same,ALP,24 h,906 IU/L
same,ALT,24 h,41 IU/L
same,AST,24 h,65.4 IU/L
same,BUN,24 h,17.8 mg/dL
same,CRE,24 h,0.5 mg/dL
same,Ca,24 h,11 mg/dL
same,Cl,24 h,104.4 meq/L
same,DBIL,24 h,0.018 mg/dL
same,GLC,24 h,201 mg/dL
same,IP,24 h,8.1 mg/dL
same,K,24 h,4.7 meq/L
same,LDH,24 h,103.6 IU/L
same,Na,24 h,139 meq/L
same,PL,24 h,142 mg/dL
same,RALB,24 h,4 g/dL
same,TBIL,24 h,0.4 mg/dL
same,TC,24 h,79.2 mg/dL
same,TG,24 h,61.4 mg/dL
same,TP,24 h,5.6 g/dL
same,gamma-GTP,24 h,1.6 IU/L
